Data published in US20240368225A1, “SELECTIVE SMALL MOLECULE AGONISTS AND PARTIAL AGONISTS OF TRK RECEPTORS” (THE TEXAS A&M UNIVERSITY SYSTEM, priority 2021, published 2024).
pEC50: −log10 of the molar value. Where two headings read alike, the source gives them in different places. *1 amine or outer side, *2 acyl side, *3 side chain or, on linkers, in order; H or OH if unused. Where a SMILES comes first, the peptide text is derived from it. Bridges are numbered along the chain shown (N, C = ends). X1 = COc1ccc(C2=C3C=C(S(=O)(=O)O)C([*:1])=[N+]3[B-](F)(F)n3c2cc(S(=O)(=O)O)c3[*:2])cc1

Key:
[1] = biological target: HEK293-TrkB cells (Homo sapiens, UniProt Q16620); experiment: HEK293-TrkB cell survival dose response (alamarBlue); format: cell-based; conditions: for pEC50: EC50, HEK293-TrkB cell survival, serum-free media, 48-72 hours; for Partial or True Agonism: HEK293-TrkB cell survival
Method: (§1) Cells were seeded at a density of 2000 cells per well. Cells were incubated in complete media for 24 hours. The media was aspirated, the cells washed twice with Dulbecco's Phosphate Buffered Saline, and the media was replaced with serum-free media to induce apoptosis unless otherwise halted. […] Cell survival was measured via alamarBlue assay after 48-72 hours to determine cell viability.
(§2) The most promising compounds from the screen were selected for each cell line. Cells were treated with a serial dilution of the compound in serum free media with or without suboptimal neurotrophin and incubated for 48-72 hours, after which an alamarBlue assay was done to determine cell viability. Cell viability was normalized to DMSO (0%) and optimal neurotrophin (100%), depending on cell type. EC50 was calculated in Graphpad Prism using the dose response “[agonist] vs response—Variable slope” function. Data is presented as the mean +/−standard deviation of an experiment with 3-6 replicates. Results for selected compounds with HeLa-TrkA cells can be found in FIG. 19A-19D. Results for selected compounds with HEK293-TrkB cells can be found in FIG. 20A-20C. Results for selected compounds with NIH3T3-TrkC cells can be found in FIG. 21A-21D.

[2] = biological target: TrkA (Homo sapiens, UniProt P04629); conditions: background statement; cited from earlier work
[3] = biological target: TrkC (Homo sapiens, UniProt Q16288); conditions: background statement; cited from earlier work
[4] = biological target: T1, p75 (Homo sapiens, UniProt P08138); conditions: background statement; cited from earlier work
T1 sequence (P08138 29-427): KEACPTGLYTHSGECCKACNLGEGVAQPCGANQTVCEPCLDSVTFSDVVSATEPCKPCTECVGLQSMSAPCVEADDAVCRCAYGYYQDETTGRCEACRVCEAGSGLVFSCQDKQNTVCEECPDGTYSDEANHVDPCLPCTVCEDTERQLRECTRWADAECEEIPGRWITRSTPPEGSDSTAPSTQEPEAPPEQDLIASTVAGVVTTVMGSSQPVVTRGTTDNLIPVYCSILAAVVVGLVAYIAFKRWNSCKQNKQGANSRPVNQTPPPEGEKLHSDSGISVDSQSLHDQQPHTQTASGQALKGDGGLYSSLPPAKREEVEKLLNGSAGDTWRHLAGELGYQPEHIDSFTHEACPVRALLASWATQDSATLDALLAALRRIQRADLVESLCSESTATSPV

[5] = test system: Goblet cells; conditions: in vitro, background statement; cited from earlier work
[6] = test system: HeLa-TrkA cells; format: cell-based
Method: as §1, §2

[7] = test system: NIH3T3-TrkC cells; format: cell-based; conditions: NIH3T3-TrkC cell survival
Method: as §1
Cells were treated with a serial dilution of the compound in serum free media with or without suboptimal neurotrophin and incubated for 48-72 hours, after which an alamarBlue assay was done to determine cell viability. Cell viability was normalized to DMSO (0%) and optimal neurotrophin (100%), depending on cell type. EC50 was calculated in Graphpad Prism using the dose response “[agonist] vs response—Variable slope” function. Data is presented as the mean +/−standard deviation of an experiment with 3-6 replicates.

[8] = without suboptimal neurotrophin
[9] = HeLa-TrkA cell survival, + 0.2 nM NGF
[10] = HeLa-TrkA cell survival, serum-free media, + 0.2 nM NGF (suboptimal), 48-72 hours, read-out: EC50
[11] = HeLa-TrkA cell survival, serum-free media, without suboptimal neurotrophin, 48-72 hours, read-out: EC50
[12] = HeLa-TrkA cell survival, without suboptimal neurotrophin

Sequence of HEK293-TrkB cells (Q16620 32-822): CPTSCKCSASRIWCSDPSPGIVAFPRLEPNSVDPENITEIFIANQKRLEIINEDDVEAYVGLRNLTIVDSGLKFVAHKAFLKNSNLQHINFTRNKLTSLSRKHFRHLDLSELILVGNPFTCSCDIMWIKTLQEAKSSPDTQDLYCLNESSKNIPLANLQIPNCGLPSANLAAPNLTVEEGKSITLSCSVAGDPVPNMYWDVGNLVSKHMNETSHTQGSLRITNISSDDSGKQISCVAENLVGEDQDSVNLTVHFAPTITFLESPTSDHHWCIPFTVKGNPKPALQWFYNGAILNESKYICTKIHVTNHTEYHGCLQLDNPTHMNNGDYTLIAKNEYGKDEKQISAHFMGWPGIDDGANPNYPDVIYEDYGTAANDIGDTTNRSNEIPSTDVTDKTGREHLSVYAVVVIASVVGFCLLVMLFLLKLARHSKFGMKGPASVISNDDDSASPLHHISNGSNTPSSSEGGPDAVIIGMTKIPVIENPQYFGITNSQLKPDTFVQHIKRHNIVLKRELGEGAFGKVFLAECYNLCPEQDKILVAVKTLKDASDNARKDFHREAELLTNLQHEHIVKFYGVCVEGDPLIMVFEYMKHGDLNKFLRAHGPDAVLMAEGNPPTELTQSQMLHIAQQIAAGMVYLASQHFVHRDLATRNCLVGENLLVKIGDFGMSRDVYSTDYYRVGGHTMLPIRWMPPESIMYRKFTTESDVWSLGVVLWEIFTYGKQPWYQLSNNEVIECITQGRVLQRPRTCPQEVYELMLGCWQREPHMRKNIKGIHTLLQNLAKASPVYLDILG
Sequence of TrkC (Q16288 32-839, species assumed): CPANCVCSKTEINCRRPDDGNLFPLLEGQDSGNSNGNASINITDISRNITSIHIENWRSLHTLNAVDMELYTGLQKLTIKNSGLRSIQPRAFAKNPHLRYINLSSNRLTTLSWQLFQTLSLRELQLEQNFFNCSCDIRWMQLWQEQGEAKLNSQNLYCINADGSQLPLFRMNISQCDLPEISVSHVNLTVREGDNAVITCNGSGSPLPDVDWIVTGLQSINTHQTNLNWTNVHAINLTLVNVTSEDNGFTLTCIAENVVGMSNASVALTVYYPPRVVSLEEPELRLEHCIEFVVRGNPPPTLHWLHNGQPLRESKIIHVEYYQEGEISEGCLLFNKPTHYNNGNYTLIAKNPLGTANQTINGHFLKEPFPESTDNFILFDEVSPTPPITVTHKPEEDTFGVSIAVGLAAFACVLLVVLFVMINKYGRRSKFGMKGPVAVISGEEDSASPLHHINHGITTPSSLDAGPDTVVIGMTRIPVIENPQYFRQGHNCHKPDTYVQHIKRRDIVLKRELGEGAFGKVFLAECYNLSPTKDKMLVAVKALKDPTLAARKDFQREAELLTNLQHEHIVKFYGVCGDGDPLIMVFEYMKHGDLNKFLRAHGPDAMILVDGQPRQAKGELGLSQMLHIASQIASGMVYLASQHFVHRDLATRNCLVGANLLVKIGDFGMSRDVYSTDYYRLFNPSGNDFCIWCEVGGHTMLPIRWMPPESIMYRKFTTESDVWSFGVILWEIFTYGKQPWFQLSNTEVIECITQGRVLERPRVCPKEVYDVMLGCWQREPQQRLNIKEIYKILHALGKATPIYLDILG
Sequence of TrkA (P04629 33-796, species assumed): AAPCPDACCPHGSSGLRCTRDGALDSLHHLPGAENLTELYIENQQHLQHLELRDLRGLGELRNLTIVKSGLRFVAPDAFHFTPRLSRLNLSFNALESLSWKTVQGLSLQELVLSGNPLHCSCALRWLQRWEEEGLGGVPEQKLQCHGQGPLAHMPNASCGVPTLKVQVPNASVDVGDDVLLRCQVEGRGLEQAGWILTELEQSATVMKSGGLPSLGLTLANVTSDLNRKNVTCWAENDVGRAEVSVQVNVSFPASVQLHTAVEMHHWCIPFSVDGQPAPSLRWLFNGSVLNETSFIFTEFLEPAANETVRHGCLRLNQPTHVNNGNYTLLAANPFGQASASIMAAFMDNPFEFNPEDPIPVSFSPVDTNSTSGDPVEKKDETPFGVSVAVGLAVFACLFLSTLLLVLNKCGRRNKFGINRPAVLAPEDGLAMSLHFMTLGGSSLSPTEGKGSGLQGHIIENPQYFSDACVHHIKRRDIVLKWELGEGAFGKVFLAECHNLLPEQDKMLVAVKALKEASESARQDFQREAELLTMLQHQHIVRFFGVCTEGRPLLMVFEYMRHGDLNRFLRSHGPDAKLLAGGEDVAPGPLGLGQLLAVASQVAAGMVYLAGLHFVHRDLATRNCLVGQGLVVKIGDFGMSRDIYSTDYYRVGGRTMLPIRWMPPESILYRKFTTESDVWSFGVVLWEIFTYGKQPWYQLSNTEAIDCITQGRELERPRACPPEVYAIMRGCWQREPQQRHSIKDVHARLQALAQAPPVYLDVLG

Molecule | pEC50 ([1]; + 0.6 nM BDNF (suboptimal)) | pEC50 [1, 8] | Partial or True Agonism ([1]; + 0.6 nM BDNF) | Partial or True Agonism [1, 8] | Partial or True Agonism [6, 12] | Partial or True Agonism ([7]; + 0.2 nM NT3) | other results
COc1ccc(C2=C3C=C(S(=O)(=O)O)C4=[N+]3[B-](F)(F)n3c2cc(S(=O)(=O)O)c3SC[C@@H](C(N)=O)NC(=O)CNC(=O)[C@H](CCCCN)NC(=O)[C@H](CO)NC(=O)[C@H](C(C)C)NC(=O)[C@@H](NC(C)=O)CS4)cc1 [5b(ii)] (Ac-CVSKGC-NH2; linker 1-6 via X1) | 5.55 | 6.05 | partial | true |  |  | 
Tavilermide [D3] |  |  |  |  |  |  | TrkA agonism [2]: partial TrkA agonist; TrkC binding [3]: does not bind TrkC; p75 activation [4]: does not activate p75; glycoconjugated mucin secretion [5]: increased glycoconjugated mucin secretion
COc1ccc(C2=C3C=C(S(=O)(=O)O)C4=[N+]3[B-](F)(F)n3c2cc(S(=O)(=O)O)c3SC[C@@H](C(N)=O)NC(=O)[C@H](CO)NC(=O)[C@H](CC(N)=O)NC(=O)[C@H](CCC(N)=O)NC(=O)[C@H]([C@@H](C)O)NC(=O)[C@@H](NC(C)=O)CS4)cc1 [5c(ii)] (Ac-CTQNSC-NH2; linker 1-6 via X1) |  |  |  |  | true |  | Partial or True Agonism [6, 9]: partial; pEC50 [6, 10]: 6.52; pEC50 [6, 11]: 5.35
CC[C@H](C)[C@@H]1NC(=O)[C@H](CC(=O)O)NC(=O)[C@@H]2C[C@@H](CN2)NC(=O)CNC(=O)[C@H](CCCNC(=N)N)NC1=O [3c(i)] |  |  |  |  |  | partial | 
COc1ccc(C2=C3C=C(S(=O)(=O)O)C4=[N+]3[B-](F)(F)n3c2cc(S(=O)(=O)O)c3SC[C@@H](C(N)=O)NC(=O)[C@H](CCCCN)NC(=O)[C@H](CC(N)=O)NC(=O)[C@H](CC(N)=O)NC(=O)[C@H](CCC(=O)O)NC(=O)[C@@H](NC(C)=O)CS4)cc1 [5c(iii)] (Ac-CENNKC-NH2; linker 1-6 via X1) |  |  |  |  |  | partial | Partial or True Agonism [7, 8]: true
CC[C@H](C)[C@@H]1NC(=O)[C@H](CC(=O)O)NC(=O)[C@@H](NC(C)=O)CSC2=[N+]3C(=C(c4ccc(OC)cc4)c4cc(S(=O)(=O)O)c(n4[B-]3(F)F)SC[C@@H](C(N)=O)NC(=O)CNC(=O)[C@H](CCCNC(=N)N)NC1=O)C=C2S(=O)(=O)O [5c(i)] (Ac-CDIRGC-NH2; linker 1-6 via X1) | 5.66 | 7.00 | partial | true |  | partial | Partial or True Agonism [7, 8]: true
COc1ccc(C2=C3C=C(S(=O)(=O)O)C4=[N+]3[B-](F)(F)n3c2cc(S(=O)(=O)O)c3SC[C@@H](C(N)=O)NC(=O)[C@H](CCC(N)=O)NC(=O)[C@H](CCCCN)NC(=O)[C@H](CCC(=O)O)NC(=O)[C@H](CC(=O)O)NC(=O)[C@@H](NC(C)=O)CS4)cc1 [5a(iii)m] (Ac-CDEKQC-NH2; linker 1-6 via X1) |  |  |  |  | true |  | Partial or True Agonism [6, 9]: partial; pEC50 [6, 10]: 6.30; pEC50 [6, 11]: 5.62
COc1ccc(C2=C3C=C(S(=O)(=O)O)C4=[N+]3[B-](F)(F)n3c2cc(S(=O)(=O)O)c3SC[C@@H](C(N)=O)NC(=O)CNC(=O)[C@H](CO)NC(=O)[C@H](CCSC)NC(=O)[C@H](CC(=O)O)NC(=O)[C@@H](NC(C)=O)CS4)cc1 [5b(i)] (Ac-CDMSGC-NH2; linker 1-6 via X1) | 5.74 | 6.40 | partial | true |  |  | 
CC[C@H](C)[C@@H]1NC(=O)[C@@H]2C[C@@H](CN2)NC(=O)[C@H](CO)NC(=O)[C@H](CC(N)=O)NC(=O)[C@H](CC(N)=O)NC1=O [3a(ii)] |  |  |  |  | true |  | pEC50 [6]: 5.00
CC[C@H](C)[C@@H]1NC(=O)[C@H](CC(N)=O)NC(=O)C(C(C)C)n2cc(nn2)CC(C(=O)N[C@@H](CCCCNS(=O)(=O)c2cccc3c(N(C)C)cccc23)C(=O)O)NC(=O)[C@H](Cc2ccccc2)NC(=O)[C@H](C(C)C)NC(=O)[C@H](CO)NC(=O)[C@H](CC(N)=O)NC(=O)[C@H](CC(N)=O)NC1=O (stereo partly drawn) [1a(ii)ext] |  |  |  |  | true |  | pEC50 [6]: 5.15
